Reference: patent publication US6589993B2, “Treating vancomycin-intermediates and multiresistant staphylococci infection with thiamphenicol or a salt thereof” (Zambon Group S.p.A., priority 2000, dated 2003)
≈ marks a conversion by molar mass, not a printed value. Read-outs that look alike come from different tables or passages of the source.

How the values were obtained:
[1] = test system: S. aureus Met-R multiresistant strains; assay: MIC determination (NCCLS broth microdilution), methicillin-resistant multiresistant S. aureus strains; format: cell-based, Staphylococcus aureus; conditions: for % susceptible at breakpoint: NCCLS (1999) breakpoints; for MIC / MIC50 / MIC90: Staphylococcus aureus; for MIC: antibiotype Oxa, Ery, read-out: MIC; for MIC50: read-out: MIC 50%; for MIC90: read-out: MIC 90%
Protocol: (§1) The MICs of thiamphenicol and of other antibiotics was obtained by using the method proposed by NCCLS (National Committee for Clinical Laboratory Standards, 1999).
(§2) Various antibiotic concentrations were added to bacteria in exponental growth (final inoculum 5×10^5 […]); dilution in Mb (cation-supplemented Mueller-Hinton broth) and distribution on a microplate by using an automatic diluting machine Biomek 1000 (Beckman, USA). MHb charged with 2% NaCl was used to test the methicillin activity.
(§3) The antibiotic concentration which hinders a visible growth after 18-24 hours of incubation at 37° C., was registered as MIC.
(§4) S. aureus ATCC 29213 was used as quality control strain.

[2] = test system: S. aureus vancomycin-intermediates (VISA) Met-R strains; assay: MIC determination (NCCLS broth microdilution), VISA Met-R strains; format: cell-based, Staphylococcus aureus; conditions: for MIC: antibiotype Oxa, Cip, Clin, Ery
Protocol: as §1, §2, §3, §4

[3] = Strain 30, Cip, Clin, Gm, SXT, Dox
[4] = Strain 32, Cip, Clin, Gm, SXT, Rif
[5] = Strain 44, Cip, Clin, Gm, Rif, Dox
[6] = Strain 45, Cip, Clin, Gm, Rif, Dox, Fos
[7] = Strain 50, Cip, Clin, Gm, Rif, Dox
[8] = Staphylococcus aureus, Strain 51 VISA, read-out: MIC

In the case of `CCC[C@@H]1C[C@@H](C(=O)N[C@@H]([C@H]2O[C@H](SC)[C@H](O)[C@@H](O)[C@H]2O)[C@H](C)Cl)N(C)C1` [Clindamycin, clindamycin], the “% susceptible at breakpoint” value ([1]; S. aureus (50) Met-R) is reported as 8%, the MIC ([1]; Strain 1, Cip, Clin, Gm) is reported as > 64 µg/mL and the MIC ([1]; Strain 2, Clin, Fos) is reported as > 64 µg/mL. The MIC ([1]; Strain 3, Cip, Clin, Gm) was > 64 µg/mL, the MIC ([1]; Strain 4, Cip, Gm) was ≤ 0.06 µg/mL and the MIC ([1]; Strain 5, Cip, Clin) was > 64 µg/mL. The MIC ([1]; Strain 6, Clin, Gm) was > 64 µg/mL, the MIC ([1]; Strain 7, Cip, Gm) was ≤ 0.06 µg/mL and the MIC ([1]; Strain 8, Cip, Clin) was > 64 µg/mL. The MIC ([1]; Strain 9, Cip, Clin, Gm) was > 64 µg/mL, the MIC ([1]; Strain 10, Cip, Clin, Gm) was 64 µg/mL (≈ 151 µM) and the MIC ([1]; Strain 11, Clin, Rif) was > 64 µg/mL. The MIC ([1]; Strain 12, Cip, Clin) was > 64 µg/mL, the MIC ([1]; Strain 13, Cip, Clin) was > 64 µg/mL and the MIC ([1]; Strain 14, Clin, Cip) was > 64 µg/mL. For the same molecule, the MIC ([1]; Strain 15, Cip, Clin, Gm) was > 64 µg/mL, the MIC ([1]; Strain 16, Cip, Clin) was > 64 µg/mL and the MIC ([1]; Strain 17, Cip, Clin) was > 64 µg/mL. For the same molecule, the MIC ([1]; Strain 18, Cip, Clin, Gm) was > 64 µg/mL, the MIC ([1]; Strain 19, Cip, Clin, Gm) was > 64 µg/mL and the MIC ([1]; Strain 20, Cip, Clin, Gm) was 64 µg/mL (≈ 151 µM). The MIC ([1]; Strain 21, Cip, Clin, Gm) was > 64 µg/mL, the MIC ([1]; Strain 22, Cip, Clin) was > 64 µg/mL and the MIC ([1]; Strain 23, Cip, Clin, Gm) was > 64 µg/mL. For the same molecule, the MIC ([1]; Strain 24, Cip, Clin, Gm) was > 64 µg/mL, the MIC ([1]; Strain 25, Cip, Clin, Gm) was 64 µg/mL (≈ 151 µM) and the MIC ([1]; Strain 26, Cip, Clin, Fos, Gm) was 64 µg/mL (≈ 151 µM). The MIC ([1]; Strain 27, Cip, Clin, Fos, Gm) was 64 µg/mL (≈ 151 µM), the MIC ([1]; Strain 28, Cip, Clin, Gm) was > 64 µg/mL and the MIC ([1]; Strain 29, Clin, Fos) was > 64 µg/mL. For the same molecule, the MIC [1, 3] was 16 µg/mL (≈ 37.6 µM), the MIC ([1]; Strain 31, Cip, Clin, Fox, Gm) was > 64 µg/mL and the MIC [1, 4] was 64 µg/mL (≈ 151 µM). For the same molecule, the MIC ([1]; Strain 33, Cip, Clin, Gm) was > 64 µg/mL, the MIC ([1]; Strain 34, Cip, Clin, Gm) was > 64 µg/mL and the MIC ([1]; Strain 35, Cip, Clin, Gm) was 64 µg/mL (≈ 151 µM). The MIC ([1]; Strain 36, Cip, Clin, Fos) was 64 µg/mL (≈ 151 µM), the MIC ([1]; Strain 37, Cip, Clin, Fos, Gm) was 64 µg/mL (≈ 151 µM) and the MIC ([1]; Strain 38, Cip, Gm) was ≤ 0.06 µg/mL. The MIC ([1]; Strain 39, Cip, Clin, Fos, Gm) was 64 µg/mL (≈ 151 µM), the MIC ([1]; Strain 40, Cip, Clin, Gm) was > 64 µg/mL and the MIC ([1]; Strain 41, Cip, Clin) was 64 µg/mL (≈ 151 µM). The MIC ([1]; Strain 42, Cip, Clin, Gm) was 64 µg/mL (≈ 151 µM), the MIC ([1]; Strain 43, Cip, Clin, Gm) was 64 µg/mL (≈ 151 µM) and the MIC [1, 5] was 64 µg/mL (≈ 151 µM). It also gave an MIC [1, 6] of 64 µg/mL (≈ 151 µM), an MIC ([1]; Strain 46, Clin, Fos) of 64 µg/mL (≈ 151 µM) and an MIC ([1]; Strain 47, Cip, Clin, Gm) of 64 µg/mL (≈ 151 µM). For the same molecule, the MIC ([1]; Strain 48, Cip, Clin) was 64 µg/mL (≈ 151 µM), the MIC ([1]; Strain 49, Cip, Gm) was ≤ 0.06 µg/mL and the MIC [1, 7] was > 64 µg/mL. For the same molecule, the MIC50 ([1]; S. aureus (50) Met-R) was > 64 µg/mL, the MIC90 ([1]; S. aureus (50) Met-R) was > 64 µg/mL and the MIC [2, 8] was > 64 µg/mL. The MIC ([2]; Strain 52 VISA) was >64 µg/mL and the “MIC Range” value ([2]; VISA (2) Met-R) was >64 µg/mL.

In the case of `O=C(N[C@H](CO)[C@H](O)c1ccc([N+](=O)[O-])cc1)C(Cl)Cl` [Cloramphenicol, cloramphenicol], the “MIC Range” value ([1]; S. aureus (50) Met-R) is reported as 4 to 64 µg/mL, the “% susceptible at breakpoint” value ([1]; S. aureus (50) Met-R) is reported as 66% and the MIC ([1]; Strain 1, Cip, Clin, Gm) is reported as 4 µg/mL (≈ 12.4 µM). For the same molecule, the MIC ([1]; Strain 2, Clin, Fos) was 64 µg/mL (≈ 198 µM), the MIC ([1]; Strain 3, Cip, Clin, Gm) was 4 µg/mL (≈ 12.4 µM) and the MIC ([1]; Strain 4, Cip, Gm) was 4 µg/mL (≈ 12.4 µM). The MIC ([1]; Strain 5, Cip, Clin) was 64 µg/mL (≈ 198 µM), the MIC ([1]; Strain 6, Clin, Gm) was 64 µg/mL (≈ 198 µM) and the MIC ([1]; Strain 7, Cip, Gm) was 8 µg/mL (≈ 24.8 µM). It also gave an MIC ([1]; Strain 8, Cip, Clin) of 64 µg/mL (≈ 198 µM), an MIC ([1]; Strain 9, Cip, Clin, Gm) of 8 µg/mL (≈ 24.8 µM) and an MIC ([1]; Strain 10, Cip, Clin, Gm) of 4 µg/mL (≈ 12.4 µM). It also gave an MIC ([1]; Strain 11, Clin, Rif) of 64 µg/mL (≈ 198 µM), an MIC ([1]; Strain 12, Cip, Clin) of 64 µg/mL (≈ 198 µM) and an MIC ([1]; Strain 13, Cip, Clin) of 8 µg/mL (≈ 24.8 µM). For the same molecule, the MIC ([1]; Strain 14, Clin, Cip) was 8 µg/mL (≈ 24.8 µM), the MIC ([1]; Strain 15, Cip, Clin, Gm) was 8 µg/mL (≈ 24.8 µM) and the MIC ([1]; Strain 16, Cip, Clin) was 8 µg/mL (≈ 24.8 µM). It also gave an MIC ([1]; Strain 17, Cip, Clin) of 8 µg/mL (≈ 24.8 µM), an MIC ([1]; Strain 18, Cip, Clin, Gm) of 64 µg/mL (≈ 198 µM) and an MIC ([1]; Strain 19, Cip, Clin, Gm) of 8 µg/mL (≈ 24.8 µM). It also gave an MIC ([1]; Strain 20, Cip, Clin, Gm) of 64 µg/mL (≈ 198 µM), an MIC ([1]; Strain 21, Cip, Clin, Gm) of 64 µg/mL (≈ 198 µM) and an MIC ([1]; Strain 22, Cip, Clin) of 8 µg/mL (≈ 24.8 µM). For the same molecule, the MIC ([1]; Strain 23, Cip, Clin, Gm) was 64 µg/mL (≈ 198 µM), the MIC ([1]; Strain 24, Cip, Clin, Gm) was 64 µg/mL (≈ 198 µM) and the MIC ([1]; Strain 25, Cip, Clin, Gm) was 8 µg/mL (≈ 24.8 µM). It also gave an MIC ([1]; Strain 26, Cip, Clin, Fos, Gm) of 8 µg/mL (≈ 24.8 µM), an MIC ([1]; Strain 27, Cip, Clin, Fos, Gm) of 8 µg/mL (≈ 24.8 µM) and an MIC ([1]; Strain 28, Cip, Clin, Gm) of 64 µg/mL (≈ 198 µM). The MIC ([1]; Strain 29, Clin, Fos) was 8 µg/mL (≈ 24.8 µM), the MIC [1, 3] was 8 µg/mL (≈ 24.8 µM) and the MIC ([1]; Strain 31, Cip, Clin, Fox, Gm) was 8 µg/mL (≈ 24.8 µM). It also gave an MIC [1, 4] of 64 µg/mL (≈ 198 µM), an MIC ([1]; Strain 33, Cip, Clin, Gm) of 64 µg/mL (≈ 198 µM) and an MIC ([1]; Strain 34, Cip, Clin, Gm) of 64 µg/mL (≈ 198 µM). For the same molecule, the MIC ([1]; Strain 35, Cip, Clin, Gm) was 8 µg/mL (≈ 24.8 µM), the MIC ([1]; Strain 36, Cip, Clin, Fos) was 8 µg/mL (≈ 24.8 µM) and the MIC ([1]; Strain 37, Cip, Clin, Fos, Gm) was 8 µg/mL (≈ 24.8 µM). For the same molecule, the MIC ([1]; Strain 38, Cip, Gm) was 8 µg/mL (≈ 24.8 µM), the MIC ([1]; Strain 39, Cip, Clin, Fos, Gm) was 8 µg/mL (≈ 24.8 µM) and the MIC ([1]; Strain 40, Cip, Clin, Gm) was 8 µg/mL (≈ 24.8 µM). The MIC ([1]; Strain 41, Cip, Clin) was 8 µg/mL (≈ 24.8 µM), the MIC ([1]; Strain 42, Cip, Clin, Gm) was 8 µg/mL (≈ 24.8 µM) and the MIC ([1]; Strain 43, Cip, Clin, Gm) was 8 µg/mL (≈ 24.8 µM). It also gave an MIC [1, 5] of 8 µg/mL (≈ 24.8 µM), an MIC [1, 6] of 8 µg/mL (≈ 24.8 µM) and an MIC ([1]; Strain 46, Clin, Fos) of 8 µg/mL (≈ 24.8 µM). The MIC ([1]; Strain 47, Cip, Clin, Gm) was 8 µg/mL (≈ 24.8 µM), the MIC ([1]; Strain 48, Cip, Clin) was 64 µg/mL (≈ 198 µM) and the MIC ([1]; Strain 49, Cip, Gm) was 8 µg/mL (≈ 24.8 µM). For the same molecule, the MIC [1, 7] was 64 µg/mL (≈ 198 µM), the MIC50 ([1]; S. aureus (50) Met-R) was 8 µg/mL (≈ 24.8 µM) and the MIC90 ([1]; S. aureus (50) Met-R) was 64 µg/mL (≈ 198 µM). For the same molecule, the MIC [2, 8] was 8 µg/mL (≈ 24.8 µM), the MIC ([2]; Strain 52 VISA) was 8 µg/mL (≈ 24.8 µM) and the “MIC Range” value ([2]; VISA (2) Met-R) was 8 µg/mL (≈ 24.8 µM). For the same molecule, the “% susceptible at breakpoint” value ([2]; VISA (2) Met-R, NCCLS (1999) breakpoints) was 100%.
